Ki data for one molecule are collected here from BindingDB's records for doi:10.1021/np960678l (1997).

The assay addresses T1, 5-hydroxytryptamine receptor 1A (Homo sapiens, UniProt P08908).
T1 sequence (P08908 whole entry): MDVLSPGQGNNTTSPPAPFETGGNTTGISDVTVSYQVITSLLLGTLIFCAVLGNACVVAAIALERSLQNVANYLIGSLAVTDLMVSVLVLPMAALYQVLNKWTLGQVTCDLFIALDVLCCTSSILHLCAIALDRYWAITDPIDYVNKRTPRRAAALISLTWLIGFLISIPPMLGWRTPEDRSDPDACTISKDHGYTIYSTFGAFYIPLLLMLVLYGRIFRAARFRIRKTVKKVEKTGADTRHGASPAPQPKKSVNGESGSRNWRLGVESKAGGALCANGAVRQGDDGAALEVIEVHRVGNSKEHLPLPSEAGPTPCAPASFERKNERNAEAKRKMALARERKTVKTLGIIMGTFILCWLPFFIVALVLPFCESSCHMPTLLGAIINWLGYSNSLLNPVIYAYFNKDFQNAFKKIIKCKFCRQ
The assay is described as follows: Displacement of [3H]8-OH-DPAT from 5HT1A receptor by vacuum filtration.

`COc1cc(-c2oc3cc(O)cc(=O)c-3c(O)c2O[C@@H]2O[C@H](CO)[C@H](O)[C@H](O)[C@H]2O)ccc1O` [isohamnetin 3-O-galactoside]: the inhibition constant Ki is > 100 µM.

In general, Ki refers to a dissociation constant, usually derived from enzyme kinetics or from competition with a known ligand. Read a high Ki as a looser hold on the target.
